Square brackets hold non-standard residues; d marks the D form. Peptide text beside a SMILES is read from it. * marks the point of attachment. Arg(NO2) = N=C(NCCC[C@H](N)C(=O)O)N[N+](=O)[O-]; X1 = CCOP(=O)(O)N[C@H](C(=O)*)[C@@H](C)CC
What was measured:
Interstitial collagenase [1] = target: T1, Interstitial collagenase (Homo sapiens, UniProt P03956); test: Assayed against human skin fibroblast Collagenase using the spectrophotometric assay with the thiol ester substrate at pH 6.5.
T1 sequence (P03956 whole entry): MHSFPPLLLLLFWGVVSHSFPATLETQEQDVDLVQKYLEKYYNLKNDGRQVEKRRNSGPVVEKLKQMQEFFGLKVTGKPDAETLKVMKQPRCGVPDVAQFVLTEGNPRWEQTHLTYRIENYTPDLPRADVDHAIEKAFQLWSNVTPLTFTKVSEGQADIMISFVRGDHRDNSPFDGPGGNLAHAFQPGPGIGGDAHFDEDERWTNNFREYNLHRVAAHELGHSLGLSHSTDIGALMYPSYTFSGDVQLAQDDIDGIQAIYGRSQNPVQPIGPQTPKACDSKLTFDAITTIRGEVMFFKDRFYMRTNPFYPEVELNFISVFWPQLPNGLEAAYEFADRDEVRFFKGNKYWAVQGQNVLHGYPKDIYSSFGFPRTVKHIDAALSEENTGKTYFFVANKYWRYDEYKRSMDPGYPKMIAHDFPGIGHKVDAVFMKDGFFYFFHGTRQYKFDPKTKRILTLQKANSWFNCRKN

Collagenase ColA = target: T2, Collagenase ColA (Bacteria, UniProt P43153); test: Inhibition of bacterial Collagenase; design: species or system Hathewaya histolytica
T2 sequence (P43153 whole entry): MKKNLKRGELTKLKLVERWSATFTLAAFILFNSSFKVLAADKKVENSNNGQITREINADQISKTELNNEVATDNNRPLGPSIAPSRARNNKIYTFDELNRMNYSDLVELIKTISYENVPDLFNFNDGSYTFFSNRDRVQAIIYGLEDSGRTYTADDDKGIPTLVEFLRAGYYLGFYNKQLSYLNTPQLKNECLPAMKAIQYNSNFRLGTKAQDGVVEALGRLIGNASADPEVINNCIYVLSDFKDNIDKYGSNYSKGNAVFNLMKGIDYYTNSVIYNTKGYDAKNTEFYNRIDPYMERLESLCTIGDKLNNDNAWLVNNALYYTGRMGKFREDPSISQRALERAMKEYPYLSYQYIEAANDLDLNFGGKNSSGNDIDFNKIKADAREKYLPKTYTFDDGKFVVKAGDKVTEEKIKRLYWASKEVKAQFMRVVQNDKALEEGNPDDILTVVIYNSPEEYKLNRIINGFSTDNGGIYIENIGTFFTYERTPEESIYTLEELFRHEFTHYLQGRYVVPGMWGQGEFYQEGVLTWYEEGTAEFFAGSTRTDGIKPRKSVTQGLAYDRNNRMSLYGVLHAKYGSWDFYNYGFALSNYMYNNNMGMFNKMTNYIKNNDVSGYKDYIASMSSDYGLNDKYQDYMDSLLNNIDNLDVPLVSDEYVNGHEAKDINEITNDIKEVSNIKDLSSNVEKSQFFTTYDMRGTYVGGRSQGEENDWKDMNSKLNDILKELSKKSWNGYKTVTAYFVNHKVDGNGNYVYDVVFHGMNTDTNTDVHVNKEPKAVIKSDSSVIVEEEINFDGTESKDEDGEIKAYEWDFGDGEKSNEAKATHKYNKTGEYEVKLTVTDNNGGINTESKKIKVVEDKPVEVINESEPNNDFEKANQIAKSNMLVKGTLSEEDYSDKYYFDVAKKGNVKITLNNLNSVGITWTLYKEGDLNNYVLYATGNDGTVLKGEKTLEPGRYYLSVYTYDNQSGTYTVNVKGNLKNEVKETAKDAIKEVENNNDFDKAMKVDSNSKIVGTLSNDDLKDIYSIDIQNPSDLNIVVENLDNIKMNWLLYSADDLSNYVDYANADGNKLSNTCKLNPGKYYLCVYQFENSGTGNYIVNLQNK

Interstitial collagenase [2] = target: T1, Interstitial collagenase; test: Inhibition of human skin fibroblast Collagenase at pH 7.5
[3] = target: T3, Angiotensin-converting enzyme (Oryctolagus cuniculus, UniProt P12822); test: Inhibitory activity against Angiotensin I converting enzyme
T3 sequence (P12822 whole entry): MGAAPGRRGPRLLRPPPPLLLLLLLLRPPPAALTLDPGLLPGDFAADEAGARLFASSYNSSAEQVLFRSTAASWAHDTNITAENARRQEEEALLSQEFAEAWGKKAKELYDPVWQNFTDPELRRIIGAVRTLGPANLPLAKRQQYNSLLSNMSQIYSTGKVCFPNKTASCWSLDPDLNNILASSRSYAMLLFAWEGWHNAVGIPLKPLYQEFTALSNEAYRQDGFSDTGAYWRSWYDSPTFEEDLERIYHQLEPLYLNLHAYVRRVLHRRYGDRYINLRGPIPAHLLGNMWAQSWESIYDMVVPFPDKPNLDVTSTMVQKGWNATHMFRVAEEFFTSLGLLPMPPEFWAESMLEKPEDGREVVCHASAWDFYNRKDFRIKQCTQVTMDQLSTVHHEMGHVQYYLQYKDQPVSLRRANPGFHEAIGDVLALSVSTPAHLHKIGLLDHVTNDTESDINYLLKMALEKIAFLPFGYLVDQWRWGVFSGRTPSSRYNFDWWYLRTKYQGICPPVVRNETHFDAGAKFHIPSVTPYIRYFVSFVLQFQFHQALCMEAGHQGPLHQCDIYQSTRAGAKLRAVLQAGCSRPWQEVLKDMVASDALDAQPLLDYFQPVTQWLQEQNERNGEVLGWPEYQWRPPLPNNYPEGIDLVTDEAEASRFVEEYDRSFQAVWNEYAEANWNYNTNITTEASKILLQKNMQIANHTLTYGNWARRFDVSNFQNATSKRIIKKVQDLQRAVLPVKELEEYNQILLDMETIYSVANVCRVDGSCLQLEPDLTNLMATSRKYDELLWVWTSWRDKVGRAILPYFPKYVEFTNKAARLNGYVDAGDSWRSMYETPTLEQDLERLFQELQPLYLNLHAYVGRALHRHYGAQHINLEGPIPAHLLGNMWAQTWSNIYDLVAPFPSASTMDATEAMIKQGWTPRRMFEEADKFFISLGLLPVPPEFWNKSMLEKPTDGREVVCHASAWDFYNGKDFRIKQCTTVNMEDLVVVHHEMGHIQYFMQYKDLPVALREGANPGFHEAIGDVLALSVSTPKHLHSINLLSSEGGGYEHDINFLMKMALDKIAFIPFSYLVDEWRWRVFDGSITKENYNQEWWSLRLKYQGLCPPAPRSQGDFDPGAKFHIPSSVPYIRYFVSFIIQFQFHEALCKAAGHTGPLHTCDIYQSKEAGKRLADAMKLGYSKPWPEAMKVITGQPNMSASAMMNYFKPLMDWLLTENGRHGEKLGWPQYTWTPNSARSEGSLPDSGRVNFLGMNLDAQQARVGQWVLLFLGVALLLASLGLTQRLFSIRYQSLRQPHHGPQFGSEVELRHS

For `CCOP(=O)(O)N[C@H](C(=O)NC(Cc1ccc(OC)cc1)C(=O)NC)[C@@H](C)CC` (some centres undefined), the Ki (Interstitial collagenase [1]) was 31 µM.

In the case of `CCOP(=O)(O)N[C@H](C(=O)NC(Cc1c[nH]c2ccccc12)C(=O)NC)[C@@H](C)CC` (some centres undefined), the Ki (Collagenase ColA) is reported as over 5000 µM, the Ki (Interstitial collagenase [2]) is reported as 0.9 µM and the Ki (Interstitial collagenase [1]) is reported as 1.5 µM.

Work on `CCOP(=O)(O)N[C@H](C(=O)NC(Cc1ccc(OCc2ccccc2)cc1)C(=O)NC)[C@@H](C)CC` (some centres undefined) yielded a Ki (Interstitial collagenase [1]) of 18 µM.

`CCOP(=O)(O)N[C@H](C(=O)NC(Cc1ccc(OCc2ccccc2)cc1)C(=O)NCC(=O)O)[C@@H](C)CC` (some centres undefined) gave a Ki [3] of 0.2 µM, a Ki (Collagenase ColA) of over 5 µM and a Ki (Interstitial collagenase [1]) of 6.7 µM.

Compound `CCOP(=O)(O)N[C@H](C(=O)N[C@@H](Cc1ccc(OCC(=O)NCc2ccccc2)cc1)C(=O)NCC(=O)O)[C@@H](C)CC` has a Ki (Interstitial collagenase [1]) of 16 µM.

Work on `CCOP(=O)(O)N[C@H](C(=O)N[C@@H](Cc1ccc(OCc2cc(Cl)cc(Cl)c2)cc1)C(=O)NCC(=O)O)[C@@H](C)CC` yielded a Ki (Interstitial collagenase [2]) of 13 µM and a Ki (Interstitial collagenase [1]) of 5.7 µM.

`CCOP(=O)(O)N[C@H](C(=O)NC(Cc1ccc(OC2CCCCO2)cc1)C(=O)NCC(=O)O)[C@@H](C)CC` (some centres undefined) showed a Ki (Interstitial collagenase [1]) of 25 µM.

`CCOP(=O)(O)N[C@H](C(=O)N[C@@H](Cc1ccc(OCC(=O)O)cc1)C(=O)NCC(=O)O)[C@@H](C)CC` was tested, and the Ki (Interstitial collagenase [1]) was 32 µM.

Compound `CCOP(=O)(O)N[C@H](C(=O)N[C@@H](Cc1ccc(OCC(=O)N[C@@H](CCCCN)C(=O)O)cc1)C(=O)NCC(=O)O)[C@@H](C)CC` has a Ki (Interstitial collagenase [1]) of 50 µM.

`CCOP(=O)(O)N[C@H](C(=O)N[C@@H](Cc1ccc(OCC(=O)N(Cc2ccccc2)Cc2ccccc2)cc1)C(=O)NCC(=O)O)[C@@H](C)CC` was tested, and the Ki (Interstitial collagenase [1]) was 27 µM.

`CCOP(=O)(O)N[C@H](C(=O)N[C@@H](Cc1ccc(OCc2ccccc2)cc1)C(=O)N[C@@H](Cc1ccccc1)C(=O)O)[C@@H](C)CC` was tested, and the Ki (Interstitial collagenase [1]) was 120 µM.

`CCOP(=O)(O)N[C@H](C(=O)N[C@@H](Cc1ccc(O)cc1)C(=O)NCC(=O)O)[C@@H](C)CC` was tested, and the Ki (Interstitial collagenase [1]) was 22 µM.

With `CCOP(=O)(O)N[C@H](C(=O)N[C@@H](Cc1c[nH]c2ccccc12)C(=O)NCC(=O)O)[C@@H](C)CC` the Ki (Interstitial collagenase [1]) was 13 µM.

`CCOP(=O)(O)N[C@H](C(=O)N[C@@H](C)C(=O)NCC(=O)O)[C@@H](C)CC` was tested, and the Ki (Interstitial collagenase [2]) was 147 µM and the Ki (Interstitial collagenase [1]) was 130 µM.

`CCOP(=O)(O)N[C@@H](CC(C)C)C(=O)N[C@@H](C)C(=O)NCC(=O)O` was tested, and the Ki (Interstitial collagenase [1]) was 140 µM.

Compound `CCOP(=O)(O)N[C@H](C(=O)N[C@@H](CC(C)C)C(=O)NCC(=O)O)[C@@H](C)CC` has a Ki (Interstitial collagenase [1]) of 49 µM.

`CCOP(=O)(O)N[C@H](C(=O)N[C@@H](C)C(=O)NCC(=O)N[C@@H](CC(C)C)C(=O)O)[C@@H](C)CC` showed a Ki (Interstitial collagenase [1]) of 240 µM.

In the case of `CCOP(=O)(O)N[C@H](C(=O)N[C@@H](Cc1ccccc1)C(=O)NCC(=O)O)[C@@H](C)CC`, the Ki (Interstitial collagenase [1]) is reported as 29 µM.

`CCOP(=O)(O)N[C@H](C(=O)N[C@@H](Cc1ccc(N)cc1)C(=O)NCC(=O)O)[C@@H](C)CC` gave a Ki (Interstitial collagenase [1]) of 19 µM.

`CCOP(=O)(O)N[C@H](C(=O)N[C@@H](C)C(=O)NCC(=O)N[C@@H](CCC(=O)O)C(=O)N[C@@H](CCCN=C(N)N)C(=O)NCC(=O)O)[C@@H](C)CC` (X1-AGERG-OH) gave a Ki (Interstitial collagenase [1]) of 403 µM.

For `CCOP(=O)(O)N[C@H](C(=O)N[C@@H](C)C(=O)NCC(=O)N[C@@H](CCC(=O)O)C(=O)N[C@@H](CCCNC(=N)N[N+](=O)[O-])C(=O)NCC(=O)O)[C@@H](C)CC` (X1-AGE[Arg(NO2)]G-OH), the Ki (Interstitial collagenase [1]) was 270 µM.

Compound `CCOP(=O)(O)N[C@H](C(=O)N[C@@H](C)C(=O)NCC(=O)N[C@@H](CCC(N)=O)C(=O)N[C@@H](CCCNC(=N)N)C(=O)NCC(=O)O)[C@@H](C)CC` (X1-AGQRG-OH) has a Ki (Interstitial collagenase [1]) of 460 µM.

With `CCOP(=O)(O)N[C@H](C(=O)N[C@@H](C)C(=O)NCC(=O)N[C@@H](CCC(N)=O)C(=O)N[C@@H](CCCNC(=N)N[N+](=O)[O-])C(=O)O)[C@@H](C)CC` (X1-AGQ[Arg(NO2)]-OH) the Ki (Interstitial collagenase [1]) was 1900 µM.
